Experimental data from US5869265A, “Ileal bile acid transporter compositions and methods” (Wake Forest University, priority 1996, dated 1999).
Read-outs that look alike come from different tables or passages of the source.

Experiments:
[1] = target: T1, human ileal/renal bile acid transporter (Homo sapiens, UniProt Q12908, S171A); experiment: Anion specificity of taurocholate uptake in HIBAT-transfected COS cells; conditions: for taurocholate uptake on replacing chloride (in words): anion in place of chloride; for Taurocholate Uptake, percentage of control: control = uptake in the presence of NaCl, 15 min, 137000 µM
T1 sequence (Q12908 1-348 S171A): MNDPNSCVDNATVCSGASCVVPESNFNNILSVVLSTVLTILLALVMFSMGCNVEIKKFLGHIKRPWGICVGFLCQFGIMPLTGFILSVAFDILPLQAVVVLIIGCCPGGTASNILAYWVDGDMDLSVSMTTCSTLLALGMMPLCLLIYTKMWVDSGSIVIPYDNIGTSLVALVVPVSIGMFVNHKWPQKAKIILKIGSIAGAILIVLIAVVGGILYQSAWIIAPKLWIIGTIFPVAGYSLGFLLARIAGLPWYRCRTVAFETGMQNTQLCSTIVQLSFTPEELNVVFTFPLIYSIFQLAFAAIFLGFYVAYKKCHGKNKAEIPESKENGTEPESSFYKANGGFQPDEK
Protocol: COS cells were seeded (1.5×10^6 cells/100 mm dish) in DMEM and transfected the following day with pCMV5-HIBAT or pCMV2-βgalactosidase (5 μg) by the DEAE-dextran method. On day 2, each group of transfected cells was treated with trypsin, pooled, and replated in 24-well culture plates at 7×10^4 cells/well. […] The cells were then lysed in 0.1N NaOH and aliquots were taken to determine protein and cell-associated radioactivity. […] Data are also given as percentage of control (uptake in the presence of NaCl).

[2] = target: T2, ileal Na^+ /bile acid cotransporter (IBAT) (Cricetulus griseus, UniProt Q60414); experiment: Inhibition of [^3 H]taurocholate uptake by organic anions in pIBAT-transfected COS cells (FIG. 6B); assay type: cell-based, hamster; conditions: 100 μM unlabeled inhibitor, 5 μM [^3 H]taurocholate
T2 construct: The hamster IBAT cDNA encodes a protein of 348 amino acids; expressed in transfected cells; host or cells: COS-1 cells, transient DEAE-dextran transfection with pIBAT (cDNA in pCMX)
T2 sequence (Q60414 1-348): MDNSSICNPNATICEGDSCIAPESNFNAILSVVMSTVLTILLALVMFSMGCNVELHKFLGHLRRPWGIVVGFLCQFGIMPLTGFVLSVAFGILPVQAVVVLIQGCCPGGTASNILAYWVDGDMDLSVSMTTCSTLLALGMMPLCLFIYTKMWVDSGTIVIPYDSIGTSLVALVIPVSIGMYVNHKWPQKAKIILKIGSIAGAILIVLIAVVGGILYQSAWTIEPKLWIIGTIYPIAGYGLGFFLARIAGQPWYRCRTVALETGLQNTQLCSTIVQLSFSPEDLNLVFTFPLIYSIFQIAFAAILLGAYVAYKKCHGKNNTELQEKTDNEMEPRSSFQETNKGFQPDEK
Protocol: FIG. 6B. […] COS cells were plated and transfected as described in the description of FIG. 4 (immediately above).
(§1) On day 0, dishes of 1.50×10^6 cells per 100-mm dish were plated in medium A. On day 1, the cells were transfected by the DEAE-dextran method (Esser et al., 1988) with 5 μg plasmid DNA. […] After the indicated amount of time at 37° C., the medium was removed, and each cell monolayer was washed and processed to determine cell-associated protein and radioactivity as described above.

liver membranes = conditions: cited from earlier work
[3] = target: T3, human ileal/renal bile acid transporter (Homo sapiens, UniProt Q12908); experiment: Cation specificity of taurocholate uptake in HIBAT-transfected COS cells; assay type: cell-based; conditions: 137 mM cation, 5 μM [^3 H]taurocholate, 15 min, 37° C., mean±SD of triplicate
T3 construct: were fused to make a single clone encoding the entire gene; expressed in transfected cells; host or cells: COS cells, transient DEAE-dextran transfection with pCMV5-HIBAT
T3 sequence (Q12908 1-348 S171A): T1 sequence (Q12908 1-348 S171A)
Protocol: (§2) COS cells were seeded (1.5×10^6 cells/100 mm dish) in DMEM and transfected the following day with pCMV5-HIBAT or pCMV2-βgalactosidase (5 μg) by the DEAE-dextran method. On day 2, each group of transfected cells was treated with trypsin, pooled, and replated in 24-well culture plates at 7×10^4 cells/well. […] The cells were then lysed in 0.1N NaOH and aliquots were taken to determine protein and cell-associated radioactivity. […] Data are also given as percentage of control (uptake in the presence of sodium).

[4] = system: ileal/renal bile acid transporter; conditions: cation replacing Na^+; cited from earlier work
[5] = target: T1, human ileal/renal bile acid transporter; experiment: Cation specificity of taurocholate uptake in HIBAT-transfected COS cells; assay type: cell-based; parameters: were fused to make a single clone encoding the entire gene; expressed in transfected cells; host or cells: COS cells, transient DEAE-dextran transfection with pCMV5-HIBAT; conditions: for Taurocholate Uptake, percentage of control: control = uptake in the presence of sodium, 15 min, 137000 µM
Protocol: as §2

[6] = target: T1, human ileal/renal bile acid transporter; experiment: Substrate specificity: [^3 H]taurocholate competition in HIBAT-transfected COS cells (Dixon plot); assay type: cell-based; parameters: were fused to make a single clone encoding the entire gene; expressed in transfected cells; host or cells: COS cells, transient DEAE-dextran transfection with pCMV5-HIBAT
Description: It is the ileal/renal bile acid transporter system's remarkable substrate specificity that makes it an appealing pharmacological target for the treatment of hypercholesterolemia by interrupting the enterohepatic circulation of bile acids. […] These studies of the major bile acid species were later extended in animal model systems to include various chemical derivatives of bile acids. However, the affinity of the human ileal/renal bile acid transporter for these natural bile acids has never been studied systematically. In addition to bile acids, the transport of other organic anions has been studied. […] The Km, Vmax, and Ki values were determined using Eadie-Hofstee and Dixon plot analysis.

[7] = target: T2, ileal Na^+ /bile acid cotransporter (IBAT); experiment: Competition for [^3 H]taurocholate uptake in pIBAT-transfected COS cells (transport specificity, FIG. 6A); assay type: cell-based, hamster; conditions: for inhibition of [^3 H]taurocholate uptake: 50 μM unlabeled competitor, 5 μM [^3 H]taurocholate (10-fold molar excess); for effect on [^3 H]taurocholate uptake (in words): 50 μM competitor, compared with taurocholate
Protocol: FIG. 6A. Transport specificity of pIBAT-transfected COS cells in the presence of competitors. COS cells were plated and transfected as described in the description of FIG. 4 (immediately above).
as §1
To examine the transport specificity of the IBAT protein, COS cells were transfected with the IBAT cDNA and incubated with 50 μM unlabeled bile acid or other competitor.

ileal transporter = conditions: in vivo; cited from earlier work
[8] = system: liver taurocholate uptake; conditions: cited from earlier work
[9] = target: T2, ileal Na^+ /bile acid cotransporter (IBAT); experiment: Sodium-dependence of taurocholate uptake in IBAT-transfected COS cells; assay type: cell-based, hamster
Protocol: as §1

cholestasis = conditions: patients with cholestasis; cited from earlier work

## CC(=O)O [Acetate, sodium acetate]
[1]
  taurocholate uptake on replacing chloride (in words): markedly reduced

## O=C1OC(c2ccc(O)c(S(=O)(=O)O)c2)(c2ccc(O)c(S(=O)(=O)O)c2)c2c(Br)c(Br)c(Br)c(Br)c21 [BSP, bromosulfophthalein]
[2]
  inhibition of [^3 H]taurocholate uptake (in words): not to be significantly inhibited
[2]; listed as bromosulfophthalein (BSP)
  inhibition of [^3 H]taurocholate uptake (in words): not inhibited
Liver membranes
  inhibition of Na^+ -dependent taurocholate uptake (in words): shown to inhibit

## [Cs+] [Cesium]
[3]
  Taurocholate Uptake: 0.2 ± 0.01 pmol/min/mg
[4]
  effect of replacing Na^+ on active taurocholate transport (in words): significantly inhibited
[5]
  Taurocholate Uptake, percentage of control: 2%

## C[C@H](CCC(=O)O)[C@H]1CC[C@H]2[C@@H]3[C@H](O)C[C@@H]4C[C@H](O)CC[C@]4(C)[C@H]3CC[C@]12C [Chenodeoxycholate]
[6]
  Ki: 3.3 ± 1.9 µM

## Cl [Chloride]
[1]
  Taurocholate Uptake, percentage of control: 100%

## C[C@H](CCC(=O)O)[C@H]1CC[C@H]2[C@@H]3[C@H](O)C[C@@H]4C[C@H](O)CC[C@]4(C)[C@H]3C[C@H](O)[C@]12C [Cholate]
[7]
  inhibition of [^3 H]taurocholate uptake: 51%

## O=C(O)CC(O)(CC(=O)O)C(=O)O [Citrate]
[1]
  taurocholate uptake on replacing chloride (in words): markedly reduced

## O=S(=O)(O)c1cc(N=C=S)ccc1C=Cc1ccc(N=C=S)cc1S(=O)(=O)O [DIDS, 4,4'-diisothiocyano-2,2'-disulfonic acid stilbene]
[2]
  inhibition of [^3 H]taurocholate uptake (in words): not to be significantly inhibited
[2]; listed as 4,4'-diisothiocyano-2,2'-disulfonic acid stilbene (DIDS)
  inhibition of [^3 H]taurocholate uptake (in words): not inhibited
Liver membranes
  inhibition of Na^+ -dependent taurocholate uptake (in words): shown to inhibit
Ileal transporter
  effect against the ileal transporter (in words): ineffective
[8]
  competition for liver taurocholate uptake (in words): compete for liver taurocholate uptake

## C[C@H](CCC(=O)O)[C@H]1CC[C@H]2[C@@H]3CC[C@@H]4C[C@H](O)CC[C@]4(C)[C@H]3C[C@H](O)[C@]12C [Deoxycholate]
[6]
  Ki: 6.4 ± 2.5 µM

## [Li] [Lithium]
[3]
  Taurocholate Uptake: 0.3 ± 0.04 pmol/min/mg
[4]
  effect of replacing Na^+ on active taurocholate transport (in words): significantly inhibited

## [K+] [Potassium]
[9]; in place of 137 mM Na^+, equal concentration
  support of [^3 H]taurocholate uptake (in words): unable to support
[3]
  Taurocholate Uptake: 0.3 ± 0.17 pmol/min/mg
[4]
  effect of replacing Na^+ on active taurocholate transport (in words): significantly inhibited
[5]; cation replacing Na^+
  taurocholate uptake on replacing Na^+ (in words): dramatically reduced
[5]
  Taurocholate Uptake, percentage of control: 3%

## [Rb] [Rubidium]
[3]
  Taurocholate Uptake: 0.3 ± 0.09 pmol/min/mg
[4]
  effect of replacing Na^+ on active taurocholate transport (in words): significantly inhibited
[5]
  Taurocholate Uptake, percentage of control: 3%

## [Na+] [Sodium]
[9]; 137 mM sodium, 5 μM [^3 H]taurocholate, 15 minutes
  taurocholate uptake (100% of control value): 134±26 pmoles min^-1 mg^-1 protein
[3]
  Taurocholate Uptake: 9.2 ± 0.41 pmol/min/mg
[5]
  Taurocholate Uptake, percentage of control: 100%

## O=S(=O)(O)O [Sulfate]
[1]
  Taurocholate Uptake, percentage of control: 69%

## C[C@H](CCC(=O)NCCS(=O)(=O)O)[C@H]1CC[C@H]2[C@@H]3[C@H](O)C[C@@H]4C[C@H](O)CC[C@]4(C)[C@H]3CC[C@]12C [Taurochenodeoxycholate, taurochenodeoxycholate]
[7]
  effect on [^3 H]taurocholate uptake (in words): competed more effectively
  inhibition of [^3 H]taurocholate uptake: 87%
[7]; listed as taurochenodeoxycholic acid
  effect on [^3 H]taurocholate uptake (in words): more effective competitors
[6]; read-out: Apparent Ki
  Ki: 3.2 ± 0.5 µM

## C[C@H](CCC(=O)NCCS(=O)(=O)O)[C@H]1CC[C@H]2[C@@H]3CC[C@@H]4C[C@H](O)CC[C@]4(C)[C@H]3C[C@H](O)[C@]12C [Taurodeoxycholate, taurodeoxycholate]
[7]
  effect on [^3 H]taurocholate uptake (in words): competed more effectively
  inhibition of [^3 H]taurocholate uptake: 80%
[7]; listed as taurodeoxycholic acid
  effect on [^3 H]taurocholate uptake (in words): more effective competitors
[6]
  Ki: 17.3 ± 3.9 µM

## C[C@H](CCC(=O)NCCS(=O)(=O)O)[C@H]1CC[C@H]2[C@@H]3[C@@H](O)C[C@@H]4C[C@H](O)CC[C@]4(C)[C@H]3CC[C@]12C [Tauroursodeoxycholate]
[6]; read-out: Apparent Ki
  Ki: 28.4 ± 7.4 µM

## C[C@H](CCC(=O)O)[C@H]1CC[C@H]2[C@@H]3[C@@H](O)C[C@@H]4C[C@H](O)CC[C@]4(C)[C@H]3CC[C@]12C [Ursodeoxycholate, Ursodeoxycholic acid]
cholestasis
  treatment outcome (in words): improves liver function, but does not stop the progression of the disease
[6]
  Ki: 77.1 ± 17.2 µM

## C=CC1=C(C)/C(=C/c2[nH]c(Cc3[nH]c(/C=C4\NC(=O)C(C)=C4C=C)c(C)c3CCC(=O)O)c(CCC(=O)O)c2C)NC1=O [bilirubin]
Ileal transporter
  effect against the ileal transporter (in words): ineffective
[8]
  competition for liver taurocholate uptake (in words): compete for liver taurocholate uptake

## CC1(C)C(/C=C/C=C/C=C/C=C2\N(CCCCS(=O)(=O)O)c3ccc4ccccc4c3C2(C)C)=[N+](CCCCS(=O)(=O)[O-])c2ccc3ccccc3c21 [indocyanine green]
Ileal transporter
  effect against the ileal transporter (in words): ineffective
[8]
  competition for liver taurocholate uptake (in words): compete for liver taurocholate uptake

## NCCS(=O)(=O)O [taurine]
[7]
  effect on [^3 H]taurocholate uptake (in words): limited effect

## Phosphate
[1]
  taurocholate uptake on replacing chloride (in words): markedly reduced
  Taurocholate Uptake, percentage of control: 31%

## phalloidin
Ileal transporter
  effect against the ileal transporter (in words): ineffective
[8]
  competition for liver taurocholate uptake (in words): compete for liver taurocholate uptake
